US20200024662A1, “METHODS FOR TREATING OPIOID ADDICTION” (ASSUREX HEALTH, INC., priority 2016, published 2020)
Entries after “also recorded” stand apart in the source; their conditions may differ.

Legend:
[1] = test system: patients treated with Methadone in the START trial; assay: PD Model 2 binning vs Methadone completion; assay type: in vivo, human
Description: (§1) For the model analyses, models were developed that sort patients into one of three categories, Green (‘G’) Yellow (‘Y’) or Red (‘R’). Patients determined to be high risk for non-completion by the model are placed into the Red Bin. Patients at intermediate risk of non-completion are placed in the Yellow Bin, and for this study, Yellow Bin patients are treated the same as patients found to be at Low Risk of non-completion, or those who are placed in the Green Bin. Thus, the Green and Yellow bins are combined for analysis.
PD Model 2: The completion percentage was calculated for each genotype. For each gene and genotype completion percentage, the means and standard deviations were calculated. For each genotype that was one standard deviation away from the mean, towards higher completion, a score of 1 was given. For each genotype that was one standard deviation away from the mean, towards lower completion, a score of −1 was given. For genotypes that were not one standard deviation away, the raw percent difference from the mean was observed as the score. Each score was then normalized across each gene using a scale from 0.2 to 1. Each value was normalized across all genes by converting the percentages on a plus/minus scale of 0, 0.2, 0.5, and 1 according to Table 17. Values that were greater than or equal to 1 SD away were automatically scored as a 1 or −1. The conversion of genotypes to scores was as shown in Tabl 18. The patient's PD risk was calculated by summing the total genotype risk score. Bins were assigned over the range of scores that maximized completers in Green and Yellow bins and non-completers in the Red bin.
(§2) Samples from patients treated with Methadone in the START trial described in Example 1 above were used (N=352). […] Each model was tested as described below against Sample 1, Sample 2 and/or the Full Sample.
(§3) Pearson's product moment, Chi-square with Yates correction were calculated. Diagnostic tests, odds ratios, Pearson's product moment, Chi-square with Yates correction were calculated using MEDCALC and R version 3.3.1.

[2] = test system: patients treated with Methadone in the START trial; assay: PD Model 3 binning vs Methadone completion; assay type: in vivo, human
Description: as §1
PD Model 3: The completion percentage was calculated for each genotype. For each genotype, the raw percent difference of completion compared to the mean of completion was assigned as the genotype's PD score. The patient's PD risk was calculated by summing the total genotype risk score. Bins were assigned over the range of scores that maximized completers in Green and Yellow bins and non-completers in the Red bin.
as §2, §3

[3] = test system: patients treated with Methadone in the START trial; assay: PK/PD Model 1 binning vs Methadone completion; assay type: in vivo, human
Description: as §1
(§4) Three separate PK/PD Models were generated by combining the PK model with each of the three PD models separately as follows. For each PKPD model, the corresponding PD risk score was added to the raw PK score (bin). A total PD risk score that was negative, represents a reduction of the baseline PK score, while a total PD risk score that was positive represented an increase in the baseline PK score.
as §2, §3
For PK/PD Model 1, final score was the sum of the PD 1 score and the PK score, where PK green=1, PK Yellow=2 and PK red=3. Bins were assigned according to Table 61.

[4] = test system: patients treated with Methadone in the START trial; assay: PK/PD Model 3 binning vs Methadone completion; assay type: in vivo, human
Description: as §1, §4, §2, §3

[5] = test system: START trial patients; assay: Single-gene logistic regression of non-completion of 24-week opioid agonist replacement therapy (START trial)
[6] = PD Model 2, Full Sample, Green bin, Risk Score −4.2 to −0.2
[7] = PD Model 2, Full Sample, Red bin, Risk Score 1.3+
[8] = PD Model 2, Full Sample, Yellow bin, Risk Score 0.1 to 1
[9] = PD Model 2, Sample 1, Green bin, Risk Score −3.3 to −0.2
[10] = PD Model 2, Sample 1, Red bin, Risk Score 1.3 to 3.7
[11] = PD Model 2, Sample 1, Yellow bin, Risk Score 0.2 to 1
[12] = PD Model 2, Sample 2, Green bin, Risk Score −3.2 to −1
[13] = PD Model 2, Sample 2, Red bin, Risk Score 0.5 to 2.7
[14] = PD Model 2, Sample 2, Yellow bin, Risk Score −0.9 to 0.3
[15] = PD Model 3, Full Sample, Green bin, Risk Score −2.3 to −0.3
[16] = PD Model 3, Full Sample, Red bin, Risk Score 1+
[17] = PD Model 3, Full Sample, Yellow bin, Risk Score −0.2 to 0.9
[18] = PD Model 3, Sample 1, Green bin, Risk Score −1.8 to −0.3
[19] = PD Model 3, Sample 1, Red bin, Risk Score 1 to 2.1
[20] = PD Model 3, Sample 1, Yellow bin, Risk Score −0.2 to 0.9
[21] = PD Model 3, Sample 2, Green bin, Risk Score −2.1 to −0.7
[22] = PD Model 3, Sample 2, Red bin, Risk Score 0.2 to 2
[23] = PD Model 3, Sample 2, Yellow bin, Risk Score −0.6 to 0.1
[24] = PK/PD Model 1, Full Sample, Green bin
[25] = PK/PD Model 1, Full Sample, Red bin
[26] = PK/PD Model 1, Full Sample, Yellow bin
[27] = PK/PD Model 1, Sample 1, Green bin
[28] = PK/PD Model 1, Sample 1, Red bin
[29] = PK/PD Model 1, Sample 1, Yellow bin
[30] = PK/PD Model 1, Sample 2, Green bin
[31] = PK/PD Model 1, Sample 2, Red bin
[32] = PK/PD Model 1, Sample 2, Yellow bin
[33] = PK/PD Model 3, Full Sample, Green bin, Risk Score −1.3 to 1.3
[34] = PK/PD Model 3, Full Sample, Red bin, Risk Score 2.4+
[35] = PK/PD Model 3, Full Sample, Yellow bin, Risk Score 1.4 to 2.3
[36] = PK/PD Model 3, Sample 1, Green bin, Risk Score −0.8 to 1.3
[37] = PK/PD Model 3, Sample 1, Red bin, Risk Score 2.4 to 5.1
[38] = PK/PD Model 3, Sample 1, Yellow bin, Risk Score 1.4 to 2.3
[39] = PK/PD Model 3, Sample 2, Green bin, Risk Score −1.1 to 0.8
[40] = PK/PD Model 3, Sample 2, Red bin, Risk Score 2.2 to 4.3
[41] = PK/PD Model 3, Sample 2, Yellow bin, Risk Score 0.9 to 2.1
[42] = Table 4.3, 24-week treatment, logistic regression with dose category

Q: Which Completers [1, 6] does the source give for `CCC(=O)C(CC(C)N(C)C)(c1ccccc1)c1ccccc1` (stereo not shown) [Methadone, methadone] here?
A: 101

Q: And the “Non Completers” value [1, 6]?
A: 7

Q: And the Completers [1, 7]?
A: 86

Q: What about the “Non Completers” value [1, 7] of the same compound?
A: 20

Q: And the Completers [1, 8]?
A: 120

Q: And the “Non Completers” value [1, 8]?
A: 18

Q: And the Completers [1, 9]?
A: 58

Q: And the “Non Completers” value [1, 9]?
A: 3

Q: And the Completers [1, 10]?
A: 43

Q: And the “Non Completers” value [1, 10]?
A: 12

Q: What about the Completers [1, 11] of the same compound?
A: 55

Q: What about the “Non Completers” value [1, 11] of the same compound?
A: 5

Q: And the Completers [1, 12]?
A: 70

Q: What about the “Non Completers” value [1, 12] of the same compound?
A: 2

Q: And the Completers [1, 13]?
A: 32

Q: And the “Non Completers” value [1, 13]?
A: 9

Q: And the Completers [1, 14]?
A: 57

Q: What about the “Non Completers” value [1, 14] of the same compound?
A: 6

Q: And the Completers [2, 15]?
A: 137

Q: What about the “Non Completers” value [2, 15] of the same compound?
A: 9

Q: What about the Completers [2, 16] of the same compound?
A: 39

Q: And the “Non Completers” value [2, 16]?
A: 10

Q: What about the Completers [2, 17] of the same compound?
A: 131

Q: And the “Non Completers” value [2, 17]?
A: 26

Q: And the Completers [2, 18]?
A: 74

Q: What about the “Non Completers” value [2, 18] of the same compound?
A: 2

Q: What about the Completers [2, 19] of the same compound?
A: 20

Q: And the “Non Completers” value [2, 19]?
A: 7

Q: And the Completers [2, 20]?
A: 62

Q: What about the “Non Completers” value [2, 20] of the same compound?
A: 11

Q: And the Completers [2, 21]?
A: 77

Q: What about the “Non Completers” value [2, 21] of the same compound?
A: 2

Q: And the Completers [2, 22]?
A: 29

Q: What about the “Non Completers” value [2, 22] of the same compound?
A: 9

Q: And the Completers [2, 23]?
A: 53

Q: What about the “Non Completers” value [2, 23] of the same compound?
A: 6

Q: What about the Completers [3, 24] of the same compound?
A: 262

Q: What about the “Non Completers” value [3, 24] of the same compound?
A: 23

Q: What about the Completers [3, 25] of the same compound?
A: 2

Q: What about the “Non Completers” value [3, 25] of the same compound?
A: 6

Q: And the Completers [3, 26]?
A: 43

Q: And the “Non Completers” value [3, 26]?
A: 16

Q: What about the Completers [3, 27] of the same compound?
A: 137

Q: What about the “Non Completers” value [3, 27] of the same compound?
A: 11

Q: And the Completers [3, 28]?
A: 2

Q: And the “Non Completers” value [3, 28]?
A: 3

Q: What about the Completers [3, 29] of the same compound?
A: 17

Q: And the “Non Completers” value [3, 29]?
A: 6

Q: And the Completers [3, 30]?
A: 134

Q: What about the “Non Completers” value [3, 30] of the same compound?
A: 10

Q: What about the Completers [3, 31] of the same compound?
A: 0

Q: What about the “Non Completers” value [3, 31] of the same compound?
A: 2

Q: What about the Completers [3, 32] of the same compound?
A: 25

Q: And the “Non Completers” value [3, 32]?
A: 5

Q: What about the Completers [4, 33] of the same compound?
A: 150

Q: What about the “Non Completers” value [4, 33] of the same compound?
A: 7

Q: And the Completers [4, 34]?
A: 64

Q: And the “Non Completers” value [4, 34]?
A: 28

Q: And the Completers [4, 35]?
A: 93

Q: And the “Non Completers” value [4, 35]?
A: 10

Q: What about the Completers [4, 36] of the same compound?
A: 80

Q: And the “Non Completers” value [4, 36]?
A: 2

Q: And the Completers [4, 37]?
A: 26

Q: What about the “Non Completers” value [4, 37] of the same compound?
A: 12

Q: What about the Completers [4, 38] of the same compound?
A: 50

Q: What about the “Non Completers” value [4, 38] of the same compound?
A: 6

Q: And the Completers [4, 39]?
A: 77

Q: And the “Non Completers” value [4, 39]?
A: 2

Q: What about the Completers [4, 40] of the same compound?
A: 24

Q: And the “Non Completers” value [4, 40]?
A: 10

Q: And the Completers [4, 41]?
A: 58

Q: What about the “Non Completers” value [4, 41] of the same compound?
A: 5

Q: And the “OR (95% CI) of non-completion, COMT VAL/MET vs MET/MET” value [5, 42]?
A: 2.76 (0.99-7.68)

Q: And the “OR (95% CI) of non-completion, COMT VAL/VAL vs MET/MET” value [5, 42]?
A: 3.16 (1.07-9.31)

Q: And the “OR (95% CI) of non-completion, COMT VAL/VAL vs VAL/MET” value [5, 42]?
A: 1.14 (0.56-2.34)

Q: What about the “OR (95% CI) of non-completion, CYP3A4 EM vs IM + PM” value [5, 42] of the same compound?
A: 1.66 (0.48-5.77)

Q: And the “OR (95% CI) of non-completion, HTR2A Intermediate vs Normal” value [5, 42]?
A: 0.58 (0.25-1.36)

Q: What about the “OR (95% CI) of non-completion, HTR2A Intermediate vs Reduced” value [5, 42] of the same compound?
A: 0.73 (0.35-1.52)

Q: What about the “OR (95% CI) of non-completion, HTR2A Normal vs Reduced” value [5, 42] of the same compound?
A: 1.26 (0.51-3.09)

Q: What about the “OR (95% CI) of non-completion, SLC6A4 L/L vs S/S” value [5, 42] of the same compound?
A: 0.54 (0.23-1.23)

Q: And the “OR (95% CI) of non-completion, SLC6A4 L/S vs L/L” value [5, 42]?
A: 0.77 (0.36-1.65)

Q: What about the “OR (95% CI) of non-completion, SLC6A4 L/S vs S/S” value [5, 42] of the same compound?
A: 0.41 (0.19-0.91)

Q: What about the “times more likely not to complete the 24-week treatment, SLC6A4 reduced phenotype compared to intermediate phenotype” value ([5]; […]) of the same compound?
A: 2.41 times

Q: What about the “effect of dose level (Dose-bin-category covariate) on non-completion” value ([5]; significance at p-value ≤0.05 in the single-gene logistic regression models) of the same compound?
A: significant for all eleven genes; also recorded: played an important role

Q: What about the “times more likely not to complete the 24-week treatment, COMT high phenotype compared to reduced phenotype” value ([5]; text statement of odds ratio) of the same compound?
A: 3.16 times
